Patent US11945811B2, “Potassium channel inhibitors” (ACESION PHARMA APS, priority 2021, dated 2024)

Biological target: T1, human SK3 channel (hKCa2.3) (Homo sapiens, UniProt Q9UGI6)
T1 construct: expressed in transfected cells
Assay: Automated patch clamping (QPatch 16 HT whole-cell recordings)
Type: cell-based
Settings: HEK-293 cells stably expressing hKCa2.3; currents measured at −80 mV; normalized to N-methyl bicuculline; read-out: IC50 in the Automated patch clamping assay (SK3 channel inhibition)
Procedure: Automated whole cell patch-clamp recordings were performed using a QPatch 16 HT system and single-hole Qplates (Sophion, Denmark) on HEK-293 cells stably expressing the human SK3 channel (hKCa2.3). Cells were cultured and prepared for experiments using normal cell culturing procedures. A total of 4-5 million cells were used per experiment. The Qpatch automatically generates giga sealing, whole-cell formation, compound application and recording of current. hKCa2.3 currents were recorded in symmetrical K^+ solutions. The intracellular/pipette solution contained 154 mM KCl, 10 mM HEPES and 10 mM EGTA. CaCl2 is added to give calculated free concentrations of Ca^2+ of 0.4 μM and MgCl2 is added to give a free concentration of 1 mM. In order to maintain a total [K^+] of 156 mM (corresponding to the concentration in the extracellular ringer) a fixed amount of KOH (15 mM) is added, thereafter pH is adjusted with HCl to pH=7.2. Expected osmolarity: 275 mOsm. Sucrose was added to a final osmolarity around 295 mosm. The extracellular solution consisted of (in mM): CaCl2 0.1, MgCl2 3, KCl 150, HEPES 10 and glucose 10, pH=7.4 adjusted with KOH. Osmolarity between 285-295 mosm. The cells were held at 0 mV and hKCa2.3 currents were elicited by a linear voltage ramp from −80 mV to +80 mV (200 ms in duration) applied every 5th second.
The compound application protocol consisted of 12 recording periods lasting 200 s: 1) Baseline recordings in extracellular solution; 2) Application of the positive control N-methyl bicuculline (100 μM), which is characterized by full efficacy, fast on- and off-rate; 3-4) Wash-out; 5-10) Increasing concentrations of test compound to establish an IC50 value; 11-12) Wash-out; 13) positive control with compound NS8593 (N-[(1R)-1,2,3,4-tetrahydro-1-naphthalenyl]-1H-benzimidazol-2-amine) (1 μM) or with N-methyl bicuculline (100 μM). Data were sampled at 10 kHz, 4th order Bessel filter, cut-off frequency 3 kHz. Currents were compensated for run-down. Potency was quantified as the concentration needed to inhibit half of the SK channel activity and reported as an IC50 value.
All effects of compounds of the present invention as tested were normalized to the observed inhibitory effect of N-methyl bicuculline. Currents were measured at −80 mV.

Structure (SMILES)	IC50 [µM]
Cc1coc(=N)n1Cc1cccc2[nH]c(NC(C)(CO)c3cccc(Cl)c3)nc12 (stereo not drawn) [Example 5, 2-(3-chlorophenyl)-2-({4-[(2-imino-4-methyl-2,3-dihydro-1,3-oxazol-3-yl)methyl]-1H-1,3-benzodiazol-2-yl}amino)propan-1-ol]	< 1
CC(C)(Nc1nc2c(Cn3ccoc3=N)cccc2[nH]1)c1cccc(C(F)(F)F)c1 [Example 7, 4-[(2-imino-2,3-dihydro-1,3-oxazol-3-yl)methyl]-N-{2-[3-(trifluoromethyl)phenyl]propan-2-yl}-1H-1,3-benzodiazol-2-amine]	< 1
CC(CO)(Nc1nc2c(CNc3ncco3)cccc2[nH]1)c1ccc(F)c(Cl)c1 (stereo not drawn) [Example 38, 2-(3-chloro-4-fluorophenyl)-2-[(4-{[(1,3-oxazol-2-yl)amino]methyl}-1H-1,3-benzodiazol-2-yl)amino]propan-1-ol]	< 30
Cc1oc(=N)n(Cc2cccc3[nH]c(NC(C)(CO)c4ccc(F)c(Cl)c4)nc23)c1C (stereo not drawn) [Example 20, 2-(3-chloro-4-fluorophenyl)-2-({4-[(2-imino-4,5-dimethyl-2,3-dihydro-1,3-oxazol-3-yl)methyl]-1H-1,3-benzodiazol-2-yl}amino)propan-1-ol]	< 1
Cc1nc(NCc2cccc3[nH]c(NC(C)(CO)c4ccc(F)c(Cl)c4)nc23)no1 (stereo not drawn) [Example 15, 2-(3-chloro-4-fluorophenyl)-2-[(4-{[(5-methyl-1,2,4-oxadiazol-3-yl)amino]methyl}-1H-1,3-benzodiazol-2-yl)amino]propan-1-ol]	< 30
Cn1nccc1NCc1cccc2[nH]c(NC(C)(CO)c3cccc(C(F)(F)F)c3)nc12 (stereo not drawn) [Example 21, 2-((4-(((1-methyl-1H-pyrazol-5-yl)amino)methyl)-1H-benzo[d]imidazol-2-yl)amino)-2-(3-(trifluoromethyl)phenyl) propan-1-ol]	< 30
Cc1oc(=N)n(Cc2cccc3[nH]c(NC(C)(CO)c4cccc(C(F)(F)F)c4)nc23)c1C (stereo not drawn) [Example 28, 2-({4-[(2-imino-4,5-dimethyl-2,3-dihydro-1,3-oxazol-3-yl)methyl]-1H-1,3-benzodiazol-2-yl}amino)-2-[3-(trifluoromethyl)phenyl]-propan-1-ol]	< 30
Cc1cn(Cc2cccc3[nH]c(NC(C)(CO)c4cccc(OC(F)(F)F)c4)nc23)c(=N)o1 (stereo not drawn) [Example 30, 2-({4-[(2-imino-5-methyl-2,3-dihydro-1,3-oxazol-3-yl)methyl]-1H-1,3-benzodiazol-2-yl}amino)-2-[3-(trifluoromethoxy)phenyl]-propan-1-ol]	< 1
CC(CO)(Nc1nc2c(Cn3ccoc3=N)cccc2[nH]1)c1ccc(F)c(Cl)c1 (stereo not drawn) [Example 8, 2-(3-chloro-4-fluorophenyl)-2-({4-[(2-imino-2,3-dihydro-1,3-oxazol-3-yl)methyl]-1H-1,3-benzodiazol-2-yl}amino)propan-1-ol]	< 1
CC(Nc1ncco1)c1cccc2[nH]c(NC(C)(CO)c3ccc(F)c(Cl)c3)nc12 (stereo not drawn) [Example 31, 2-(3-chloro-4-fluorophenyl)-2-[(4-{1-[(1,3-oxazol-2-yl)amino]ethyl}-1H-1,3-benzodiazol-2-yl)amino]propan-1-ol]	< 30
CC(CO)(Nc1nc2c(CN3CCSC3=O)cccc2[nH]1)c1ccc(F)c(Cl)c1 (stereo not drawn) [Example 36, 3-[(2-{[2-(3-chloro-4-fluorophenyl)-1-hydroxypropan-2-yl]amino}-1H-1,3-benzodiazol-4-yl)methyl]-1,3-thiazolidin-2-one]	< 30
Cc1noc(NCc2cccc3[nH]c(NC(C)(CO)c4ccc(F)c(Cl)c4)nc23)n1 (stereo not drawn) [Example 17, 2-(3-chloro-4-fluorophenyl)-2-[(4-{[(3-methyl-1,2,4-oxadiazol-5-yl)amino]methyl}-1H-1,3-benzodiazol-2-yl)amino]propan-1-ol]	< 30
Cc1coc(=N)n1Cc1cccc2[nH]c(NC(C)(CO)c3cccc(OC(F)(F)F)c3)nc12 (stereo not drawn) [Example 29, 2-({4-[(2-imino-4-methyl-2,3-dihydro-1,3-oxazol-3-yl)methyl]-1H-1,3-benzodiazol-2-yl}amino)-2-[3-(trifluoromethoxy)phenyl]propan-1-ol]	< 1
Cc1nnc(NCc2cccc3[nH]c(NC(C)(CO)c4ccc(F)c(Cl)c4)nc23)o1 (stereo not drawn) [Example 16, 2-(3-chloro-4-fluorophenyl)-2-((4-(((5-methyl-1,3,4-oxadiazol-2-yl)amino)methyl)-1H-benzo[d]imidazol-2-yl)amino) propan-1-ol]	< 30

Next, values leading:

IC50 [µM]	Structure (SMILES)
< 1	CC(CO)(Nc1nc2c(Cn3ccoc3=N)cccc2[nH]1)c1cccc(Cl)c1 (single isomer, unassigned; (-)) [Example 3a, (−)-2-(3-chlorophenyl)-2-({4-[(2-imino-2,3-dihydro-1,3-oxazol-3-yl)methyl]-1H-1,3-benzodiazol-2-yl}amino)propan-1-ol]
< 1	CC(CO)(Nc1nc2c(Cn3ccoc3=N)cccc2[nH]1)c1cc(Cl)ccc1F (single isomer, unassigned) [Example 47a]
< 30	CC(CO)(Nc1nc2c(Cn3ccoc3=N)cccc2[nH]1)c1cccc(Cl)c1F (single isomer, unassigned; (+)) [Example 41b, (+)-2-(3-chloro-2-fluorophenyl)-2-({4-[(2-imino-2,3-dihydro-1,3-oxazol-3-yl)methyl]-1H-1,3-benzodiazol-2-yl}amino)propan-1-ol]
< 1	CC(CO)(Nc1nc2c(Cn3ccoc3=N)cccc2[nH]1)c1ccc(Cl)c(F)c1 (single isomer, unassigned) [Example 39a, 2-(4-chloro-3-fluorophenyl)-2-({4-[(2-imino-2,3-dihydro-1,3-oxazol-3-yl)methyl]-1H-1,3-benzodiazol-2-yl}amino)propan-1-ol]
< 30	CC(CO)(Nc1nc2c(Cn3ccoc3=N)cccc2[nH]1)c1cccc(Cl)c1 (single isomer, unassigned; (+)) [Example 3b, (+)-2-(3-chlorophenyl)-2-({4-[(2-imino-2,3-dihydro-1,3-oxazol-3-yl)methyl]-1H-1,3-benzodiazol-2-yl}amino)propan-1-ol]
< 1	CC(CO)(Nc1nc2c(Cn3ccoc3=N)cccc2[nH]1)c1ccc(Cl)c(Cl)c1 (single isomer, unassigned) [Example 19a]
< 1	Cc1cn(Cc2cccc3[nH]c(NC(C)(CO)c4cccc(C(F)(F)F)c4)nc23)c(=N)o1 (single isomer, unassigned; (+)) [Example 24b, (+)-2-({4-[(2-imino-5-methyl-2,3-dihydro-1,3-oxazol-3-yl)methyl]-1H-1,3-benzodiazol-2-yl}amino)-2-[3-(trifluoromethyl)-phenyl]propan-1-ol]
< 1	CC(CO)(Nc1nc2c(Cn3ccoc3=N)cccc2[nH]1)c1cccc(Cl)c1F (single isomer, unassigned; (-)) [Example 41a, (−)-2-(3-chloro-2-fluorophenyl)-2-({4-[(2-imino-2,3-dihydro-1,3-oxazol-3-yl)methyl]-1H-1,3-benzodiazol-2-yl}amino)propan-1-ol]
< 30	CC(CO)(Nc1nc2c(CNc3ncco3)cccc2[nH]1)c1cc(Cl)ccc1F (single isomer, unassigned; (+)) [Example 48a, (+)-2-(5-chloro-2-fluorophenyl)-2-[(4-{[(1,3-oxazol-2-yl)amino]methyl}-1H-1,3-benzodiazol-2-yl)amino]propan-1-ol]
< 30	CC(CO)(Nc1nc2c(CNc3ccon3)cccc2[nH]1)c1ccc(Cl)c(F)c1 (single isomer, unassigned) [Example 44a]
< 1	Cc1coc(=N)n1Cc1cccc2[nH]c(NC(C)(CO)c3cccc(C(F)(F)F)c3)nc12 (single isomer, unassigned; (-)) [Example 23a, (−)-2-({4-[(2-imino-4-methyl-2,3-dihydro-1,3-oxazol-3-yl)methyl]-1H-1,3-benzodiazol-2-yl}amino)-2-[3-(trifluoromethyl)phenyl]propan-1-ol]
< 30	CC(CO)(Nc1nc2c(Cn3ccoc3=N)cccc2[nH]1)c1ccc(Cl)c(F)c1 (single isomer, unassigned) [Example 39b, 2-(4-chloro-3-fluorophenyl)-2-({4-[(2-imino-2,3-dihydro-1,3-oxazol-3-yl)methyl]-1H-1,3-benzodiazol-2-yl}amino)propan-1-ol]
< 1	CC(CO)(Nc1nc2c(Cn3ccsc3=N)cccc2[nH]1)c1ccc(F)c(Cl)c1 (single isomer, unassigned; (-)) [Example 32a, (−)-2-(3-chloro-4-fluorophenyl)-2-({4-[(2-imino-2,3-dihydro-1,3-thiazol-3-yl)methyl]-1H-1,3-benzodiazol-2-yl}amino)propan-1-ol]
